{"source": "patent US11214803B2", "about": "“Modulators of YAP1 expression” (Ionis Pharmaceuticals, Inc., priority 2019, dated 2022)", "system": "Yap1 mRNA", "assay": "Antisense inhibition of human Yap1 in SNU-449 cells by modified oligonucleotides, single dose (Example 5, RTS36584)", "format": "cell-based", "method_in_brief": "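Values are Yap1 mRNA as percent of untreated control cells, measured by quantitative real-time RT-PCR using RTS36584 and normalised to total RNA by RIBOGREEN. Cells were SNU-449, dosed by free uptake at 2,000 nM for approximately 48 hours.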", "key": {"[1]": {"conditions": "Table 39, SNU-449 cells, 10,000 cells per well, free uptake, 2,000 nM oligonucleotide, approx. 48 hours, RTS36584, normalized to RIBOGREEN, Yap1 mRNA relative to untreated control"}, "[2]": {"conditions": "Table 49, Yap1 mRNA level relative to untreated control, modified oligonucleotides targeting SEQ ID NO.: 1 and 2"}, "[3]": {"conditions": "Yap1 mRNA, percent of untreated control, modified oligonucleotides targeting SEQ ID NO: 1 and 2, Table 47"}, "[4]": {"conditions": "Table 50, Yap1 mRNA remaining as percent of untreated control (UT), SNU-449 cells, single dose"}, "[5]": {"conditions": "Table 46, Yap1 mRNA as percent of untreated control, SNU-449 cells, single dose"}, "[6]": {"conditions": "Table 41, SNU-449 cells, 10,000 cells per well, free uptake, 2,000 nM modified oligonucleotide, approximately 48 hours, RTS36584, normalized to RIBOGREEN, Yap1 mRNA relative to untreated control cells"}}, "note": "Strand notation (5' to 3'): a small letter for the sugar, then the base; units joined by * are phosphorothioate-linked, units joined directly phosphodiester-linked; [ ] holds rarer units or linkages, { } end groups; capitals alone tell only the bases. e = 2'-O-(2-methoxyethyl) (MOE); k = constrained ethyl (cEt); [5mC] = 5-methylcytosine; d = 2'-deoxy (DNA); m = 2'-O-methyl", "data": [{"substance": "1198941 (kT*kT*dA*dT*dA*dT*dG*dG*dT*dT*dT*kT*dG*kT*dG*kT; antisense) [Compound 1198941]", "values": [{"measurement": "YAP1 (% UTC)", "setting": "Table 45, Yap1 mRNA as percent of untreated control, SNU-449 cells, single dose", "value": 35, "unit": "% UTC"}]}, {"substance": "1198412 (kT*dT*dA*dG*dG*dA*dT*dG*d[5mC]*dA*dT*kG*eG*kT*eT*kT; antisense) [Compound 1198412]", "values": [{"measurement": "YAP1 (% UTC)", "setting": "[1]", "value": 17, "unit": "% UTC"}]}, {"substance": "1198570 (antisense kG*k[5mC]*kA*d[5mC]*dT*dT*dT*dT*dA*d[5mC]*dA*dT*kT*kA*kG*eG) [Compound 1198570]", "values": [{"measurement": "YAP1 (% UT)", "setting": "[2]", "value": 15, "unit": "% UT"}]}, {"substance": "1198404 (kT*dT*dT*dG*dG*dA*dA*dG*dA*dT*d[5mC]*kT*eG*kA*eA*kA) [Compound 1198404]", "values": [{"measurement": "YAP1 (% UTC)", "setting": "[1]", "value": 55, "unit": "% UTC"}]}, {"substance": "1197185 (antisense kA*kA*kG*d[5mC]*dA*d[5mC]*dT*dT*dT*dT*dA*d[5mC]*dA*kT*kT*kA) [Compound 1197185]", "values": [{"measurement": "YAP1 (% UT)", "setting": "[3]", "value": 55, "unit": "% UT"}]}, {"substance": "1198492 (antisense kG*k[5mC]*dT*dT*dT*dG*dG*dA*dA*dG*dA*eT*k[5mC]*eT*kG*eA) [Compound 1198492]", "values": [{"measurement": "YAP1 (% UTC)", "setting": "Table 44 experiment, SNU-449 cells, 10,000 cells per well, free uptake, 2,000 nM, approximately 48 hours, RTS36584, Yap1 mRNA normalized to RIBOGREEN, relative to untreated control cells", "value": 15, "unit": "% UTC"}]}, {"substance": "1198547 (antisense kG*kG*kA*dA*dA*dT*dT*dG*dT*d[5mC]*dT*d[5mC]*kA*kT*kG*e[5mC]) [Compound 1198547]", "values": [{"measurement": "YAP1 (% UT)", "setting": "[2]", "value": 27, "unit": "% UT"}]}, {"substance": "1198873 (kA*kG*dT*dG*dT*dA*dT*dG*dT*d[5mC]*dA*kG*eA*kA*eG*kA; antisense) [Compound 1198873]", "values": [{"measurement": "YAP1 (% UT)", "setting": "[3]", "value": 4, "unit": "% UT"}]}, {"substance": "1198595 (antisense kT*k[5mC]*kT*dT*dA*dT*dA*dT*dG*dG*dT*dT*kT*kT*kG*eT) [Compound 1198595]", "values": [{"measurement": "YAP1 (% UT)", "setting": "[4]", "value": 27, "unit": "% UT"}]}, {"substance": "1200804 (kA*kG*kG*dT*dA*mU*dA*dA*d[5mC]*dT*dG*dG*dG*k[5mC]*kA*kA; antisense) [Compound 1200804]", "values": [{"measurement": "YAP1 (% UT)", "setting": "Table 52, Yap1 mRNA, modified oligonucleotides targeting SEQ ID NO: 1 and 2", "value": 44, "unit": "% UT"}]}, {"substance": "1198430 (kA*dT*dA*dT*dT*dG*d[5mC]*dA*dA*dT*d[5mC]*kT*eG*kT*e[5mC]*kT) [Compound 1198430]", "values": [{"measurement": "YAP1 (% UTC)", "setting": "[1]", "value": 49, "unit": "% UTC"}]}, {"substance": "1198835 (kT*kT*dA*dA*dG*d[5mC]*dA*d[5mC]*dT*dT*dT*kT*eA*k[5mC]*eA*kT; antisense) [Compound 1198835]", "values": [{"measurement": "YAP1 (% UT)", "setting": "[5]", "value": 85, "unit": "% UT"}]}, {"substance": "1198630 (kA*kA*dT*dT*dG*dT*d[5mC]*dT*d[5mC]*dA*dT*dG*k[5mC]*e[5mC]*kT*eT; antisense) [Compound 1198630]", "values": [{"measurement": "YAP1 (% UTC)", "setting": "[6]", "value": 37, "unit": "% UTC"}]}, {"substance": "1198828 (kT*kT*dT*dT*dA*d[5mC]*dA*dT*dT*dA*dG*kG*eA*kA*e[5mC]*kA; antisense) [Compound 1198828]", "values": [{"measurement": "YAP1 (% UT)", "setting": "[5]", "value": 59, "unit": "% UT"}]}, {"substance": "1198387 (kT*d[5mC]*dT*dA*dT*dA*dT*dT*dA*dG*dA*kG*eT*kA*eT*kG; antisense) [Compound 1198387]", "values": [{"measurement": "YAP1 (% UTC)", "setting": "[1]", "value": 84, "unit": "% UTC"}]}, {"substance": "1198339 (kA*k[5mC]*kT*d[5mC]*dT*dT*dA*dT*dA*dT*dG*dG*kT*eT*kT*eT; antisense) [Compound 1198339]", "values": [{"measurement": "YAP1 (% UT)", "setting": "[2]", "value": 25, "unit": "% UT"}]}, {"substance": "1197236 (antisense kT*kA*kT*dT*mA*dG*dA*dG*dT*dA*dT*dG*dT*kG*kG*k[5mC]) [Compound 1197236]", "values": [{"measurement": "YAP1 (% UT)", "setting": "[4]", "value": 17, "unit": "% UT"}]}, {"substance": "1198449 (kA*dA*dG*dT*dA*dA*dG*dG*dT*dT*dT*k[5mC]*e[5mC]*k[5mC]*eA*kG; antisense) [Compound 1198449]", "values": [{"measurement": "YAP1 (% UTC)", "setting": "[1]", "value": 37, "unit": "% UTC"}]}, {"substance": "1197288 (kT*k[5mC]*kT*dA*mU*dA*dT*dT*dA*dG*dA*dG*dT*kA*kT*kG; antisense) [Compound 1197288]", "values": [{"measurement": "YAP1 (% UT)", "setting": "[4]", "value": 94, "unit": "% UT"}]}, {"substance": "1197225 (antisense kG*kA*k[5mC]*dT*dA*dA*dG*dT*dA*dA*dG*dG*dT*kT*kT*k[5mC]) [Compound 1197225]", "values": [{"measurement": "YAP1 (% UT)", "setting": "[3]", "value": 46, "unit": "% UT"}]}, {"substance": "1198881 (kT*kA*dA*dG*dG*dT*dT*dT*d[5mC]*d[5mC]*d[5mC]*kA*eG*kA*eT*kT; antisense) [Compound 1198881]", "values": [{"measurement": "YAP1 (% UT)", "setting": "[5]", "value": 36, "unit": "% UT"}]}, {"substance": "1198659 (antisense kT*kT*dA*dA*dG*d[5mC]*dA*d[5mC]*dT*dT*dT*dT*kA*e[5mC]*kA*eT) [Compound 1198659]", "values": [{"measurement": "YAP1 (% UTC)", "setting": "[6]", "value": 58, "unit": "% UTC"}]}, {"substance": "1198838 (kT*kT*dT*dG*dG*dA*dA*dG*dA*dT*d[5mC]*kT*eG*kA*eA*kA; antisense) [Compound 1198838]", "values": [{"measurement": "YAP1 (% UT)", "setting": "[5]", "value": 66, "unit": "% UT"}]}]}
